PMC7460560, “Discovery of Novel Agents on Spindle Assembly Checkpoint to Sensitize Vinorelbine-Induced Mitotic Cell Death against Human Non-Small Cell Lung Cancers” (International Journal of Molecular Sciences, 2020)

Assays:
tubulin = molecular target: T1, tubulin (Sus scrofa, UniProt P02550+P02554); assay: in vitro pure tubulin polymerization assay (Cytoskeleton kit, […] nm), […] inhibition at […]; assay type: biochemical; conditions: read-out: % inhibition at 1000 nM
T1 construct: with alpha-tubulin

[1] = molecular target: T2, PDE5A1 (phosphodiesterase type 5) (Homo sapiens, UniProt O76074); assay: PDE5A1 assay kit (BPS Bioscience), fluorescence polarization with FAM-cyclic-3', […]'-GMP; assay type: biochemical
T2 construct: gene PDE5A

T1 sequence (P02554 whole entry): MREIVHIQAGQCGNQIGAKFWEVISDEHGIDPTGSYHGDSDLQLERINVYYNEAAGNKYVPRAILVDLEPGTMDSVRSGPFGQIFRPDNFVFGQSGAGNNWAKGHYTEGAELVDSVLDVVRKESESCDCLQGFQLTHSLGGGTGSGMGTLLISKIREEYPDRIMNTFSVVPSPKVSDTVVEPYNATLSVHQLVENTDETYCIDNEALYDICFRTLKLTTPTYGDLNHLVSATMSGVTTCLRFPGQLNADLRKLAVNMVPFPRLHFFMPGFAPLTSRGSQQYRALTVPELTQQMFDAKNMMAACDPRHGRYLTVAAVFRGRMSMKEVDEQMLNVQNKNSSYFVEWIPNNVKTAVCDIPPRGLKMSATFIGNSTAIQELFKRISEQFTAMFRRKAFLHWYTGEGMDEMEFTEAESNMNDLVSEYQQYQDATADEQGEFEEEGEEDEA
T1 sequence (P02550 whole entry): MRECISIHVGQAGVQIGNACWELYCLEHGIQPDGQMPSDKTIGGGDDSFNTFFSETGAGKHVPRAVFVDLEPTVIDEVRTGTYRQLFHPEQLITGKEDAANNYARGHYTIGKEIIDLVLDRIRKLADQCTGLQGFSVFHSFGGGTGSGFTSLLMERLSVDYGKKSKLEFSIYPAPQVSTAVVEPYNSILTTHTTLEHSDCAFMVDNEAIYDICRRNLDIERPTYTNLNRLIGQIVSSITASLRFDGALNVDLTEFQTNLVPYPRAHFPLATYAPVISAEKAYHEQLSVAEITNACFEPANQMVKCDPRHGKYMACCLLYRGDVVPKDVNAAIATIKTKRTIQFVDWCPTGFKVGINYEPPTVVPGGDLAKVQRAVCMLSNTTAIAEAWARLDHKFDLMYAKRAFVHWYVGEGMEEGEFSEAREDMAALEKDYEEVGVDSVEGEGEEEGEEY

## CCC1=C[C@@H]2CN(C1)Cc1c([nH]c3ccccc13)[C@@](C(=O)OC)(c1cc3c(cc1OC)N(C)[C@H]1[C@@](O)(C(=O)OC)[C@H](OC(C)=O)[C@]4(CC)C=CCN5CC[C@]31[C@@H]54)C2 [vinorelbine]
tubulin
  inhibition at 1 µM: 16.7%

## CCCn1nnc2c(OC)nc(-c3cc(S(=O)(=O)N4CCN(C)CC4)ccc3OC)nc21 [YL-9]
[1]
  IC50: 632 nM
